Here are results for four compounds from patent US20130287688A1, “NOVEL COMPOSITIONS AND USES OF ANTI-HYPERTENSION AGENTS FOR CANCER THERAPY” (XTUIT PHARMACEUTICALS, INC., priority 2010, published 2013).

In one assay the test system is tumors. The assay is described as follows: Solid stress after a panel of ARBs. The assay is classed as in vivo. The following applies: 40 mg/kg losartan, 3.2 mg/kg candesartan, 32 mg/kg valsartan. The procedure:
Solid stress levels in tumors after angiotensin inhibition using the ARBs losartan, candesartan, and valsartan are shown. Doses were chosen based on their relative doses in patients for hypertension indications (40 mg/kg losartan, 3.2 mg/kg candesartan, 32 mg/kg valsartan). […] Animal numbers n=6-7. Statistical tests were corrected for multiple comparisons using the Holm-Bonferroni method.
The mechanism responsible for the increase in tumor vessel perfusion by losartan was investigated. Desmoplasia, high stromal cell and matrix density, is a major contributor to the solid stress accumulation that compresses vessels (Stylianopoulos T, et al., Growth-induced mechanical stress in murine and human tumors: causes, consequences and remedies. under review. 2012). Since angiotensin inhibitors reduce matrix production in tumors (Diop-Frimpong B, et al., Proc Natl Acad Sci USA. 2011; 108(7): 2909-14), it was hypothesized that they decompress vessels and increase perfusion by decreasing solid stress. Collagen levels were used as a metric of matrix production as described in Diop-Frimpong et al., Proc Nall Acad Sci USA. […] Moreover, losartan decreased collagen I concentration, measured based on staining intensity, in E0771 and AK4.4 tumors (FIGS. 24B-24C). Of note, dense collagen seemed to colocalize with low-perfusion areas (FIG. 24C). Next, solid stress in these tumors was measured using recently established technique described in Stylianopoulos T, et al., Growth-induced mechanical stress in murine and human tumors: causes, consequences and remedies. under review. 2012. […]
Solid stress: Solid stress was measured using the tumor opening technique as described previously (Stylianopoulos T, et al., Growth-induced mechanical stress in murine and human tumors: causes, consequences and remedies. under review. 2012). […] Subsequently, each tumor was excised, washed with Hanks' Balanced Salt Solution (HBSS) and its three dimensions were measured. […] Afterwards, the opening resulting from the cut was measured at the middle of the cut at the surface of the tumor. […]

Assay [1] concerns E0771 breast tumors. Description: Breast tumor growth and survival studies. The assay is classed as in vivo, mice. The procedure: (§1) Breast tumor growth and survival studies: Mice bearing orthotopic E0771 or 4T1 breast tumors were split into treatment groups, time-matched for time after implantation and size-matched for tumor volume at this time (110-111 mm^3 in E0771, in 4T1). […] The primary tumors were then measured every 2 days, beginning on day 0, using calipers. Tumor growth was quantified using the time for each to reach double its initial volume Animal survival was quantified based on time of death after initiation of treatment or time to reach excessive tumor burden (>1000 mm^3).

The test system of a further assay is 4T1 breast tumors. The assay is described as follows: Breast tumor growth and survival studies. The assay is classed as in vivo, mice.
Excerpt: In FIG. 35B, the quantification of tumor growth rates, based on the time to reach double the initial volume, is shown.
In FIG. 35C, the animal survival following the initiation of treatment is shown. […] Statistical tests were corrected for multiple comparisons using the Holm-Bonferroni method.
as §1

The subject of assay [2] is E0771 breast tumors. Description: Tumor matrix level histology (collagen I). Also on record: species or system SCID mouse. The following applies: mouse, in vivo. The procedure: Collagen levels were used as a metric of matrix production as described in Diop-Frimpong et al., Proc Nall Acad Sci USA. […] Next, solid stress in these tumors was measured using recently established technique described in Stylianopoulos T, et al., Growth-induced mechanical stress in murine and human tumors: causes, consequences and remedies. under review.
Vessel perfusion, matrix level, and hypoxia histology: For breast tumors, mice bearing orthotopic E0771 were split into treatment groups, time-matched for time after implantation and size-matched for tumor volume at this time (−100 mm^3). For pancreatic tumors, mice bearing orthotopic AK4.4 were split into treatment groups, size-matched for tumor volume (˜22 mm^3), 6 days after implantation. […] On the day of the last treatment, mice were slowly (−2 min) injected with 100 μL of 1 mg/mL biotinylated lectin (Vector Labs), administered retro-orbitally 5 min prior to tumor removal. For hypoxia studies, the mice were also injected with 60 mg/kg of 10 mg/mL pimonidazole 1 hr prior to tumor removal. […] For matrix staining, collagen I was detected using the LF-67 antibody provided by Dr. Larry Fisher (National Institute of Dental Research, Bethesda, Md.).
Histological image analysis: Eight random images (four interior, four periphery) at 20× magnification were taken from each slide using a confocal microscope (Olympus). […] For perfusion, the number of vessels counted by this program with colocalization of lectin and CD31 staining was divided by the number of vessels counted with CD31 staining. For vessel metrics, including diameter and density, the program determined the average size of all counted vessels and their length, as well as the count per area Images of collagen I stained sections were analyzed based on the area fraction of positive staining and on the average staining intensity (concentration) in each image. […] Images of hypoxia staining with pimonidazole were similarly analyzed for the area fraction of positive staining, counting the fraction of pixels above a threshold based on background intensity.

In the next assay the test system is E0771 tumors. Description: Solid stress (tumor opening technique). Also on record: species or system mice. The settings on record: mouse, in vivo.
[3] abbreviates: agent given alone (losartan 40 mg/kg daily or doxorubicin 2 mg/kg every three days).

Method for E0771 tumors: Solid stress was assessed using an ex vivo technique involving the measurement of the extent of tumor tissue relaxation (tumor opening relative to tumor diameter) following a stress-releasing incision, with larger openings indicating higher stress.
When the tumors reached a size of −1 cm in diameter, the mice were anesthetized. Subsequently, each tumor was excised, washed with Hanks' Balanced Salt Solution (HBSS) and its three dimensions were measured. Each tumor was cut along its longest axis, to a depth of 80% of its shortest dimension, using a scalpel. The tumors were allowed to relax for 10 minutes in HBSS to diminish any transient, poro-elastic responses. Afterwards, the opening resulting from the cut was measured at the middle of the cut at the surface of the tumor. Solid stress is proportional to the size of the opening relative to the size of the dimension perpendicular to the cut.

`CCOc1nc2cccc(C(=O)O)c2n1Cc1ccc(-c2ccccc2-c2nnn[nH]2)cc1` [candesartan]: the solid stress entry in the assay on tumors was “reduce solid stress to a similar degree”.
On to `COc1cccc2c1C(=O)c1c(O)c3c(c(O)c1C2=O)C[C@@](O)(C(=O)CO)C[C@@H]3O[C@H]1C[C@H](N)[C@H](O)[C@H](C)O1` [doxorubicin], for which the tumor growth rate result with E0771 breast tumors [1] (setting [3]) and with 4T1 breast tumors (setting [3]) was “no significant effect” throughout. In the assay on E0771 breast tumors [1] (doxorubicin alone), the median survival was determined as 16 days. Moreover, the survival result in the assay on 4T1 breast tumors (monotherapy) is listed as “improves survival”.
Turning to `NCCCC[C@H](N[C@@H](CCc1ccccc1)C(=O)O)C(=O)N1CCC[C@H]1C(=O)O` [lisinopril], in the assay with E0771 breast tumors [2], the “matrix production, collagen I area fraction” value was “decreases”. In addition, the solid stress entry in the assay with E0771 tumors is on record as “reduces solid stress”.
`CCCCC(=O)N(Cc1ccc(-c2ccccc2-c2nnn[nH]2)cc1)[C@H](C(=O)O)C(C)C` [valsartan]: the solid stress result in the assay with tumors is recorded as “reduce solid stress to a similar degree”.
